Patent US9815866B2, “Peptides that bind to epithelial cell adhesion molecule” (JAPANESE FOUNDATION FOR CANCER RESEARCH, priority 2012, dated 2017)
Values belong to the compound of their own block, whether it stands above or below them. Bridge positions count the residues as written; N and C are the ends. Ends that are not written are not given here. Peptide text beside a SMILES is read from it.

What was measured:
EpCAM [1] = target: T1, EpCAM (Homo sapiens, UniProt P16422); test: ELISA with ferritin-fused Ep114 peptide; assay type: binding; details: either partner immobilized
T1 construct: with insertions myc and His tags at the C terminus of the extracellular domain; myc (C); made in house; host or cells: HEK-293T
T1 sequence (P16422 24-265 limits assumed): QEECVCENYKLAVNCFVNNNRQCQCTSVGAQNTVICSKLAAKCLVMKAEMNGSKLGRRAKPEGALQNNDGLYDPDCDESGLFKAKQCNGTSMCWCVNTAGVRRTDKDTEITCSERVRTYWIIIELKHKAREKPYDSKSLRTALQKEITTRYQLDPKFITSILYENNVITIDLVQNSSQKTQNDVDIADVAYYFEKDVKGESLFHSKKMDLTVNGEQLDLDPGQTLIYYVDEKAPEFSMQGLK
Experimental: Ep114 was fused to the N terminus of Fer8 (Non Patent Literature 6), a ferritin derivative, and used in analysis.
1 μg of the ferritin-fused Ep114 peptide (Ep114/fer8) or ferritin (fer8) was immobilized onto an ELISA plate. Then, purified EpCAM was added thereto at different concentrations. Bound EpCAM was detected using the anti-EpCAM antibody (FIG. 8A).
Next, 0.2 μg of purified EpCAM was immobilized onto an ELISA plate. Then, the ferritin-fused Ep114 peptide (Ep114/fer8) or ferritin (fer8) was added thereto at different concentrations. Bound Ep114 peptide (Ep114/fer8) or ferritin (fer8) was detected using an anti-ferritin antibody (FIG. 8B).

anti-Ep114 antibody = test: Immunoprecipitation with biotinylated Ep114 on streptavidin beads: binding to anti-Ep114 antibody; parameters: species or system rabbit; details: peptide on streptavidin-magnetic beads, Western blot
Experimental: 250 μg of streptavidin-magnetic beads (Dynabeads® M-280 streptavidin, VERITAS Corp.) in TBS containing 2% BSA was added to 20 μg of the biotinylated Ep114 peptide and shaken at room temperature for 30 minutes, followed by washing with TBS. Beads reacted without the peptide were used as a control. The anti-Ep114 antibody was added to the beads in TBST and reacted at room temperature for 1 hour. After washing with TBS, the beads were collected. The collected beads were heated at 95° C. for 5 minutes in a SDS sample buffer. After Western-blotting, the anti-Ep114 antibody was detected using HRP-labeled anti-rabbit antibodies.
A schematic diagram of the reaction with the magnetic beads is shown in the left panel of FIG. 5A, and the Western blot results are shown on the right panel thereof.

EpCAM [2] = target: T1, EpCAM; test: Dissociation constant of EpCAM-binding peptide and EpCAM by fluorescence depolarization method; details: immediately after chemical synthesis, no oxidation
Experimental: The obtained EpCAM peptides were assayed for their strength of binding to EpCAM by the fluorescence depolarization method, which is a method for evaluating the interaction between molecules. Each fluorescently labeled EpCAM peptide and EpCAM are used to determine the strength of binding from the kinetics of depolarization by Brownian movement.
Each FITC-modified EpCAM peptide or control peptide was suspended at a concentration of approximately 100 μM in PBS. After centrifugation, the supernatant was collected and diluted 10-fold, and the absorbance was measured at 495 nm From the measurement value, the molar concentration of the peptide was determined using the formula of Beer-Lambert of the following expression 1: A=E×b×C [Expression 1]
EpCAM is diluted with PBS into several concentrations from 0 until reaching equilibrium (40 nM for the Ep133 peptide), and the FITC-modified peptide whose precise concentration has been measured by the aforementioned method is added to the dilutions thus prepared. The sample was left at a temperature for measurement for 30 minutes or longer and subjected to polarization measurement using a spectrofluorometer FP-6500 (JASCO Corp.) equipped with an automatic polarization measurement unit (JASCO Corp., APH-103). Kd was estimated by curve fitting according to the Hill equation.
The dissociation constants of the two types of peptides Ep133 (FIG. 2(A)) and Ep114 (FIG. 2(C)), which were obtained in the present invention and had the high ability to bind to EpCAM, were measured by the fluorescence depolarization method.
The dissociation constants of the EpCAM-binding peptide Ep301 (FIG. 2(D)) disclosed in Patent Literature 2 and Ep301 control (FIG. 2(E)), which was a control peptide derived from Ep301 by the substitution of cysteine at positions 5 and 10 by serine, and a sequence of EpCAM from residue 106 to 119 (FIG. 2(F)) having partial homology to EpCAM-binding peptides were measured similarly.

HT-29-derived exosomes = target: T2, HT-29-derived exosomes (Homo sapiens, UniProt P16422); test: ELISA with immobilized biotinylated peptide and HT-29-derived exosomes; assay type: binding; details: increasing HT-29-derived exosomes
T2 construct: endogenous in cells; host or cells: exosomes from HT-29 cells
T2 sequence (P16422 24-314): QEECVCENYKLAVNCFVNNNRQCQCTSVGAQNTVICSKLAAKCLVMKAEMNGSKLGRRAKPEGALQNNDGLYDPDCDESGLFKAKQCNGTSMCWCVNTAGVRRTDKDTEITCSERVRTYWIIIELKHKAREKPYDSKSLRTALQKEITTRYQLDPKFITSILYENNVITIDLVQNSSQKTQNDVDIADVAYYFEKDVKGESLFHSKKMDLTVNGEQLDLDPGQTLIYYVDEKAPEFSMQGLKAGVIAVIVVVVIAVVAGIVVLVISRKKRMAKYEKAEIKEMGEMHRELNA
Experimental: was immobilized onto an ELISA plate via streptavidin, and HT-29-derived exosomes were added thereto and reacted. After washing, bound exosomes were detected using the anti-EpCAM antibody. The biotin-modified peptide PE194 of the L3A variant was immobilized in the same way as above and used as a control.

MCF-7 cells = target: T3, MCF-7 cells (Homo sapiens, UniProt P16422); test: Staining of EpCAM in MCF-7 cells; assay type: cell-based; details: data not shown
T3 construct: in MCF-7 cells known to express EpCAM; endogenous in cells; host or cells: MCF-7
T3 sequence (P16422 24-314): T2 sequence (P16422 24-314)
Experimental: (§1) The HT-29 cells as EpCAM-expressing cells were cultured by spheroid culture method as follows: 4×10^5 cells are suspended in 3 ml of D-MEM/F-12 medium (Dulbecco's Modified n Eagle Medium:Nutrient Mixture 12, 1:1 mixture) (Gibco/Life Technologies Inc.) supplemented with 20 ng/ml human EGF (Miltenyi Biotec K.K.), 20 ng/ml human EGF-2 (Miltenyi Biotec K.K.), B-27 (Gibco/Life Technologies Inc.), penicillin, and streptomycin and inoculated to EZ-Sphere®, a Petri dish of 3.5 cm in diameter coated with MPC polymer. After static culture for 72 hours, the cells were collected while the medium was suspended by pipetting. The cells were stained with the FITC-modified peptide and observed under a fluorescence microscope. The staining was carried out by adding 4 μM peptide into a McCoy's 5A medium and standing still at room temperature for 30 minutes.
In addition to HT-29 cells, the staining of EpCAM using Ep114 was also confirmed by a similar method in MCF-7 cells known to express EpCAM (data not shown).

[3] = target: T4, EpCAM-expressing cells HT-29 (Homo sapiens, UniProt P16422); test: Cell staining of HT-29 cells, confocal microscope; assay type: cell-based; details: HT-29, FITC-labeled peptide 0.4 μM, 37° C., 1 hour
T4 construct: EpCAM on HT-29 was stained at a concentration of 0.4 μM; endogenous in cells; host or cells: HT-29
T4 sequence (P16422 24-314): T2 sequence (P16422 24-314)
Experimental: (§2) The EpCAM-expressing cells HT-29 or the non-expressing cells Hs578T were cultured in a medium containing 10% fetal calf serum in a Petri dish for 48 hours and then incubated at 37° C. for 1 hour with the FITC-labeled Ep114 peptide or a L3A control labeled peptide at a final concentration of 0.4 μM Immediately thereafter, the cells were observed under a confocal microscope.

[4] = test system: non-EpCAM-expressing cells Hs578T; test: Cell staining of Hs578T cells, confocal microscope; assay type: cell-based; details: FITC-labeled peptide 0.4 μM, 37° C., 1 hour
Experimental: as §2

[5] = target: T5, 293T cells transfected with full-length EpCAM gene (Homo sapiens, UniProt P16422); test: Staining of 293T cells forced to express EpCAM with FITC-modified peptide; assay type: cell-based; details: FITC-modified peptide with or without oxidation treatment
T5 construct: an expression plasmid in which the full-length EpCAM gene incorporated; expressed in transfected cells; host or cells: 293T
T5 sequence (P16422 24-314): T2 sequence (P16422 24-314)
Excerpt: 293T cells expressing no endogenous EpCAM were transfected with pkk196, an expression plasmid in which the full-length EpCAM gene incorporated, and forced to express EpCAM, followed by staining using FITC-modified Ep114.

[6] = S—S bond formation (autoxidation) of peptide by fluorescence depolarization method and HPLC; assay type: physicochemical
Excerpt: The S—S bond formation of Ep114 was studied in detail using the fluorescence depolarization method and HPLC.

EpCAM on HT-29 = target: T6, EpCAM on HT-29 (Homo sapiens, UniProt P16422); test: Staining of spheroid-cultured HT-29 cells with FITC-modified peptide; assay type: cell-based; parameters: endogenous in cells; host or cells: HT-29; details: FITC-labeled peptide, 0.4 μM
T6 sequence (P16422 24-314): T2 sequence (P16422 24-314)
Experimental: as §1, with “The staining was carried out by adding 4 μM peptide into a McCoy's 5A medium and standing still at room temperature for 30 minutes.” left out

EpCAM [7] = target: T7, EpCAM (Homo sapiens, UniProt P16422); test: Binding activity against EpCAM after oxidation treatment (S—S bond formation, HPLC fractionation)
T7 sequence (P16422 24-314): T2 sequence (P16422 24-314)

EpCAM [8] = target: T7, EpCAM; details: peptide separated from the phage; earlier work (Patent Literature 2); cited from earlier work

- detection of EpCAM (EpCAM [1]): capable of sensitively detecting EpCAM
Compound: ferritin-fused Ep114 peptide: Ep114 fused to the N terminus of Fer8, a ferritin derivative (KHLQCVRNICWS; not fully specified (C-terminus, bridges); cysteine pairing not given here; also: fused to ferritin Fer8 (recombinant carrier), not in the letters)

- binding to anti-Ep114 antibody (anti-Ep114 antibody): bound with the anti-Ep114 antibody
Compound: biotinylated Ep114: Ep114 peptide biotinylated at the stage of its synthesis, without linker (KHLQCVRNICWS; cysteine pairing not given here; also: biotin label, position not given here)

- binding activity against EpCAM (EpCAM [2]): no binding activity against EpCAM
- ELISA signal (HT-29-derived exosomes): enhancement in ELISA signal was observed
- staining of EpCAM (MCF-7 cells): confirmed
- ability to stain EpCAM [5]: equivalent ability to stain EpCAM
- staining of EpCAM on HT-29 spheroids (EpCAM on HT-29): stained
Compound: CC[C@H](C)[C@@H]1NC(=O)[C@H](CC(N)=O)NC(=O)[C@H](CCCNC(=N)N)NC(=O)[C@H](C(C)C)NC(=O)[C@@H](NC(=O)[C@H](CCC(N)=O)NC(=O)[C@H](CC(C)C)NC(=O)[C@H](Cc2c[nH]cn2)NC(=O)[C@@H](N)CCCCN)CSSC[C@@H](C(=O)N[C@@H](Cc2c[nH]c3ccccc23)C(=O)N[C@@H](CO)C(=O)O)NC1=O [Ep114, KHLQCVRNICWS] (H-KHLQCVRNICWS-OH; disulfide 5-10; N-terminus and C-terminus assumed)
- staining of cell membrane portions [3]: staining of the cell membrane portions of the EpCAM-expressing cells HT-29 was observed
- staining [4]: no staining was observed
- S—S bond formation ([6]; in PBS at 4° C. or frozen at −20° C., data not shown): oxidized after 10 days to form an S—S bond
- oxidation ([6]; in the presence of 10% FCS): rapidly oxidized

- binding activity against EpCAM (EpCAM [7]): gain binding activity against EpCAM
Compound: CC[C@H](C)[C@@H]1NC(=O)[C@@H](NC(=O)[C@H](CCC(N)=O)NC(=O)[C@H](CC(C)C)NC(=O)[C@H](CO)NC(=O)[C@@H](N)CCCCN)CSSC[C@@H](C(=O)N[C@@H](Cc2c[nH]c3ccccc23)C(=O)N2CCC[C@H]2C(=O)O)NC(=O)[C@H](CC(C)C)NC(=O)[C@H](CC(N)=O)NC(=O)[C@H](CC(N)=O)NC1=O [Ep301, KSLQCINNLCWP, reference compound] (H-KSLQCINNLCWP-OH; disulfide 5-10; N-terminus and C-terminus assumed)
- ability of the peptide to bind to EpCAM (EpCAM [8]): weak
